Values after ≈ are worked out from the molar mass of the structure shown. Active and inactive are the calls of the source. The rule behind the calls is not given here.
Legend:
[1] = Inhibition of GST-tagged DLK (1 to 520 residues)(unknown origin) using MKK4 as substrate preincubated for 60 mins followed by substrate/ATP addition measured after 30 mins by HTRF assay; design: species or system Homo sapiens
[2] = Inhibition of human DLK transfected in HEK293-T-REx cells assessed as decrease in JNK phosphorylation incubated for 5 hrs by HTRF assay; assay type: cell-based
[3] = Kinetic solubility of compound at pH 6.8; assay type: physicochemical; conditions: buffer, read-out: Kinetic_solubility
[4] = Energy of neutralization, pKa of compound; assay type: physicochemical
[5] = biological target: Voltage-gated inwardly rectifying potassium channel KCNH2 (Homo sapiens, UniProt Q12809); experiment: Inhibition of hERG by patch-clamp method; assay type: toxicity
[6] = Apparent permeability across apical to basal side in MDCK-MDR1 cells; assay type: ADME, cell-based, Canis lupus familiaris; conditions: dog
[7] = Efflux ratio in MDCK-MDR1 cells; assay type: ADME, cell-based, Canis lupus familiaris; conditions: dog
[8] = Intrinsic clearance in mouse liver microsomes; assay type: ADME, Microsome; conditions: read-out: CLH
[9] = Intrinsic clearance in human liver microsomes; assay type: ADME, Microsome; conditions: read-out: CLH
[10] = Clearance in mouse at 5 mg/kg, po; assay type: ADME, organism-based; conditions: in vivo
[11] = Half life in mouse at 5 mg/kg, po; assay type: ADME, organism-based; conditions: in vivo
[12] = Oral bioavailability in mouse at 5 mg/kg; assay type: ADME, organism-based; conditions: in vivo
[13] = Ratio of unbound drug concentration in brain to plasma of mouse at 5 mg/kg; assay type: ADME, organism-based; conditions: brain and plasma, read-out: K(p,uu,brain)
CYP3A4 = CYP3A4 (Homo sapiens, UniProt P08684); experiment: Time dependent inhibition of CYP3A4 (unknown origin) at 30 uM incubated for 30 mins relative to control; assay type: ADME; conditions: read-out: TDI
DRG neuron = experiment: Protection against paclitaxel-induced axon degeneration in C57/Bl6 mouse DRG neurons at 1 uM measured after 72 hrs by immunofluorescence based analysis; assay type: functional, cell-based
[14] = Protection against paclitaxel-induced axon degeneration in C57/Bl6 mouse DRG neurons measured after 72 hrs by immunofluorescence based analysis; assay type: functional, cell-based; conditions: drg neuron
CYP3A [15] = biological target: T1, CYP3A (Homo sapiens, UniProt P08684+P20815+P24462+Q9HB55); experiment: Binding affinity to CYP3A in human liver microsomes assessed as inhibition constant; assay type: ADME, Microsome
CYP3A [16] = biological target: T1, CYP3A; experiment: Binding affinity to CYP3A in human liver microsomes assessed as inactivation constant; assay type: ADME, Microsome
[17] = Inhibition of GST-tagged LZK (1 to 966 residues)(unknown origin) using MKK4 as substrate preincubated for 60 mins followed by substrate/ATP addition measured after 30 mins by HTRF assay; design: species or system Homo sapiens
[18] = Inhibition of DLK in C57/Bl6 mouse DRG neuron model of paclitaxel-induced axon degeneration assessed as decrease in p-cJun level measured after 20 hrs by immunofluorescence based analysis; assay type: cell-based
[19] = Protection against paclitaxel-induced axon degeneration in C57/Bl6 mouse DRG neurons at 0.74 uM measured after 72 hrs by immunofluorescence based analysis relative to control; assay type: functional; conditions: C57/Bl6, DRG neuron
[20] = Intrinsic clearance in dog liver microsomes; assay type: ADME, Canis lupus familiaris, Microsome; conditions: read-out: CLH
[21] = In vivo inhibition of DLK in mouse cerebellum at 3 to 75 mg/kg, po measured after 2 hrs; assay type: functional, organism-based
[22] = Total drug concentration in mouse brain at 3 to 75 mg/kg, po measured after 2 hrs; assay type: ADME, organism-based; conditions: dose 3-75 mg/kg, read-out: Ct
[23] = Total unbound drug concentration in mouse brain at 3 to 75 mg/kg, po measured after 2 hrs; assay type: ADME, organism-based; conditions: in vivo, dose 3-75 mg/kg
[24] = Unbound fraction in mouse brain at 3 to 75 mg/kg, po measured after 2 hrs; assay type: ADME, organism-based; conditions: in vivo, dose 3-75 mg/kg
[25] = Clearance in IV-dosed mouse; assay type: ADME; conditions: in vivo
[26] = Volume of distribution at steady state in IV-dosed mouse; assay type: ADME; conditions: in vivo, read-out: Vdss
[27] = Half life in IV-dosed mouse; assay type: ADME; conditions: in vivo
[28] = Oral bioavailability in mouse; assay type: ADME, organism-based; conditions: in vivo
[29] = Clearance in IV-dosed rat; assay type: ADME; conditions: in vivo
[30] = Volume of distribution at steady state in IV-dosed rat; assay type: ADME; conditions: in vivo, read-out: Vdss
[31] = Half life in IV-dosed rat; assay type: ADME; conditions: in vivo
[32] = Oral bioavailability in rat; assay type: ADME, organism-based; conditions: in vivo
[33] = Clearance in IV-dosed dog; assay type: ADME, Canis lupus familiaris; conditions: in vivo
[34] = Volume of distribution at steady state in IV-dosed dog; assay type: ADME, Canis lupus familiaris; conditions: in vivo, read-out: Vdss
[35] = Half life in IV-dosed dog; assay type: ADME, Canis lupus familiaris; conditions: in vivo
[36] = Oral bioavailability in dog; assay type: ADME, organism-based, Canis lupus familiaris; conditions: in vivo
[37] = Clearance in IV-dosed cynomolgous monkey; assay type: ADME, Macaca fascicularis; conditions: cynomolgus monkey, in vivo
[38] = Volume of distribution at steady state in IV-dosed cynomolgous monkey; assay type: ADME, Macaca fascicularis; conditions: cynomolgus monkey, in vivo, read-out: Vdss
[39] = Half life in IV-dosed cynomolgous monkey; assay type: ADME, Macaca fascicularis; conditions: cynomolgus monkey, in vivo
[40] = Oral bioavailability in cynomolgous monkey; assay type: ADME, organism-based, Macaca fascicularis; conditions: cynomolgus monkey, in vivo
[41] = Ratio of unbound drug concentration in brain to plasma of CD-1 mouse at 5 to 75 mg/kg, po; assay type: ADME, organism-based; conditions: brain and plasma, dose 5-75 mg/kg, read-out: K(p,uu,brain)
[42] = Ratio of unbound drug concentration in brain to plasma of rat; assay type: ADME; conditions: brain and plasma, read-out: K(p,uu,brain)
[43] = Drug metabolism in dog hepatocytes assessed as formation of N-methylated metabolites; assay type: ADME, cell-based, Canis lupus familiaris, Hepatocyte
[44] = Drug metabolism in PO-dosed dog plasma assessed as formation of N-methylated metabolites; assay type: ADME, Canis lupus familiaris
[45] = Drug metabolism in rat hepatocytes assessed as formation of N-methylated metabolites; assay type: ADME, cell-based, Hepatocyte
[46] = Drug metabolism in cynomolgous monkey hepatocytes assessed as formation of N-methylated metabolites; assay type: ADME, cell-based, Macaca fascicularis, Hepatocyte; conditions: cynomolgus monkey
[47] = Drug metabolism in human hepatocytes assessed as formation of N-methylated metabolites; assay type: ADME, cell-based, Hepatocyte
[48] = Cytotoxicity against human HepG2 cells; assay type: toxicity, cell-based

Chain of Voltage-gated inwardly rectifying potassium channel KCNH2 (Q12809 whole entry): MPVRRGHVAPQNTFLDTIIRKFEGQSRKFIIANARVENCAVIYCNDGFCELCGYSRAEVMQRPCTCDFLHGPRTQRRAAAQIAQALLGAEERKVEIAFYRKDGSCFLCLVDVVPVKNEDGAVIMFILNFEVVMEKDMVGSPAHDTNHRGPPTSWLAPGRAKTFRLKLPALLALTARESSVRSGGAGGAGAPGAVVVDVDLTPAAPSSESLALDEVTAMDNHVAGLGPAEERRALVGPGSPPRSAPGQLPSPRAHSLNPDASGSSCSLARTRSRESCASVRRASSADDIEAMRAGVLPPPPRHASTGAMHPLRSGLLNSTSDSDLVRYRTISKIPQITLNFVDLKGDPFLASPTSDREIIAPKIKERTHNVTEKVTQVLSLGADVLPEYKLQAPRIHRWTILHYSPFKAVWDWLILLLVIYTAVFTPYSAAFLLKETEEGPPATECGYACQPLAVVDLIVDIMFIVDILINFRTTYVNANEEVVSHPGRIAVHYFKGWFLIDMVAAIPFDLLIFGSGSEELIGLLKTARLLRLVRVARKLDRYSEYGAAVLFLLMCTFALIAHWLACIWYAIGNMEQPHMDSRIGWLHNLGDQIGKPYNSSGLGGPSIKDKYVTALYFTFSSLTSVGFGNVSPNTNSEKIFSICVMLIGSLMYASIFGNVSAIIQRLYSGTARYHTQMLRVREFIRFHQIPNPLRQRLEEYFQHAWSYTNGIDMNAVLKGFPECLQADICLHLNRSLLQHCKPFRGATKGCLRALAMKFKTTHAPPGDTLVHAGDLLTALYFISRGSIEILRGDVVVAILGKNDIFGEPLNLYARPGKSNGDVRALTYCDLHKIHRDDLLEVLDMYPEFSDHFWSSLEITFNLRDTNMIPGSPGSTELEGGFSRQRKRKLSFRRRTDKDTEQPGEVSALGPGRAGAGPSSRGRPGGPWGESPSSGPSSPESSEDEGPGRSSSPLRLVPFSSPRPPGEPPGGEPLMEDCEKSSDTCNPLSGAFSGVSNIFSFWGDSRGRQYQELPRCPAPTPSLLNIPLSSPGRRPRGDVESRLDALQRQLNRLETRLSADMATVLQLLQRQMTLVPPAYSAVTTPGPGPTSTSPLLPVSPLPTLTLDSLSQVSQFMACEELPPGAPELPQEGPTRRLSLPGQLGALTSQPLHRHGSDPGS
Chain of CYP3A4 (P08684 whole entry): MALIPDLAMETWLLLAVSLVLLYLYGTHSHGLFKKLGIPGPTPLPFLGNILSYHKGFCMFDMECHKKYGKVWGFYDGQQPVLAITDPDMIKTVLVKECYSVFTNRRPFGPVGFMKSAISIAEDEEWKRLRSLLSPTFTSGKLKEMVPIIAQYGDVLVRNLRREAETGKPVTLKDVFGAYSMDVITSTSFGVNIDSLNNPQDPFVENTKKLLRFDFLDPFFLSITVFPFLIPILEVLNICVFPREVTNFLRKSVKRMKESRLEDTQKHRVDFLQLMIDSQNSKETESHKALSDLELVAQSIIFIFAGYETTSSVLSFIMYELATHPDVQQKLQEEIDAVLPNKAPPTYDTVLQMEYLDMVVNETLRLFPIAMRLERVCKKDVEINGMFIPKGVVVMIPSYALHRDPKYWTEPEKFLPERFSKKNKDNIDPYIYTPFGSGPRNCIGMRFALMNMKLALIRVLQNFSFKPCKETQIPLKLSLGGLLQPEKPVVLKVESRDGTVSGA

CCc1nc(-c2cnc(N)c(OC(F)(F)F)c2)c2ccc([C@H]3COCCN3C)cn12
Ki [1]: 0.8 nM
IC50 [2]: 48 nM
solubility kinetic [3]: 295 µM (≈ 124 µg/mL)
pKa [4]: 5.8
IC50 [5]: 16000 nM
Papp A→B [6]: 37.6 ×10⁻⁶ cm/s
efflux ratio [7]: 0.7
microsomal CLint [8]: 1 µL/min/mg
microsomal CLint [9]: 6 µL/min/mg
CL/F [10]: 40 mL/min/kg
half-life [11]: 0.8 h
bioavailability [12]: 141%
Kp uu [13]: 0.17
inhibition at 0.5 h, 30 µM (CYP3A4): 72%
Activity (DRG neuron): Active
EC50 [14]: 305 nM
Ki (CYP3A [15]): 12400 nM
kinact (CYP3A [16]): 0.00113 s⁻¹

CCc1nc(-c2cnc(N)c(C(F)(F)F)c2)c2ccc(C3CCN(C)CC3)cn12
Ki [1]: 0.3 nM
IC50 [2]: 23 nM
solubility kinetic [3]: 268 µM (≈ 108 µg/mL)
pKa [4]: 9.2
IC50 [5]: < 400 nM
Papp A→B [6]: 10.6 ×10⁻⁶ cm/s
efflux ratio [7]: 1.6
microsomal CLint [8]: 15 µL/min/mg
microsomal CLint [9]: 3 µL/min/mg
CL/F [10]: 43 mL/min/kg
half-life [11]: 3.8 h
bioavailability [12]: 85%
Kp uu [13]: 0.18

Nc1ncc(-c2cc(N3C[C@@H]4C[C@H]3CO4)nc(N3CCC(F)(F)C3)n2)cc1OC(F)F [GDC-0134]
Ki [17]: 7 nM
Ki [1]: 3.5 nM
IC50 [2]: 79 nM
EC50 [14]: 475 nM
IC50 [18]: 301 nM
Emax at 0.74 µM [19]: 75%

CCc1nc(-c2cnc(N)c(OC(F)F)c2)c2ccc([C@H]3COCCN3C)cn12
solubility kinetic [3]: 284 µM (≈ 115 µg/mL)
Papp A→B [6]: 30.1 ×10⁻⁶ cm/s
efflux ratio [7]: 0.8
microsomal CLint [8]: 17 µL/min/mg
microsomal CLint [9]: 8 µL/min/mg
CL/F [10]: 109 mL/min/kg
half-life [11]: 0.3 h
bioavailability [12]: 144%
Kp uu [13]: 0.14

CCn1nc(-c2cnc(N)c(OC(F)F)c2)c2ccn([C@@H]3CCC(F)(F)C[C@@H]3OC)c(=O)c21
Ki [17]: 15 nM
Ki [1]: 0.69 nM
IC50 [2]: 51 nM
IC50 [5]: 9000 nM
microsomal CLint [8]: 18 µL/min/mg
microsomal CLint [9]: < 3 µL/min/mg
microsomal CLint [20]: 5.8 µL/min/mg
inhibition at 0.5 h, 30 µM (CYP3A4): 27.5%
EC50 [14]: 363 nM
Ki (CYP3A [15]): 170000 nM
kinact (CYP3A [16]): 0.00117 s⁻¹
IC50 [18]: 95 nM
Emax at 0.74 µM [19]: 72%
IC50 [21]: 31 nM
concentration at 2 h [22]: 1000 ng/g
Drug uptake(free) [23]: 14.5 ng/g
Fu [24]: 1.5%
clearance [25]: 5.3 mL/min/kg
Vd [26]: 1.6 L/kg
half-life [27]: 4.8 h
bioavailability [28]: 53%
clearance [29]: 8.3 mL/min/kg
Vd [30]: 4.3 L/kg
half-life [31]: 7.2 h
bioavailability [32]: 57%
clearance [33]: 24 mL/min/kg
Vd [34]: 8.8 L/kg
half-life [35]: 6.6 h
bioavailability [36]: 81%
clearance [37]: 5.5 mL/min/kg
Vd [38]: 4.8 L/kg
half-life [39]: 12 h
bioavailability [40]: 52%
Kp uu [41]: 0.3
Kp uu [42]: 0.6
Drug metabolism [43]: metabolite_detected
Drug metabolism [44]: metabolite_detected
Drug metabolism [45]: metabolite_detected
Drug metabolism [46]: metabolite_detected
Drug metabolism [47]: metabolite_detected
IC50 [48]: 52000 nM
